Assay results reported in publication PMC5867665, “Targeting Multiple Effector Pathways in Pancreatic Ductal Adenocarcinoma with a G-Quadruplex-Binding Small Molecule” (Journal of Medicinal Chemistry, 2018).

Tests used:
PANC-1 cells = test: RNA-seq gene expression, PANC-1; type: cell-based, human; conditions: for 1/2-SBSRNA4 logFC PANC-1 / A1BG logFC PANC-1 / A1BG-AS1 logFC PANC-1 / A2LD1 logFC PANC-1 / A4GALT logFC PANC-1: 300 nM gemcitabine
From the text: CM03 is a potent G4 ligand, as shown by the FRET and quantitative binding experiments reported here. We therefore reasoned that the potent CM03 antiproliferative activity on PDAC cells could be mediated through a G4-targeting mechanism. To test this hypothesis, we determined whether transcriptome changes upon early CM03 treatment were correlated with G4 presence in promoters and/or gene bodies. […] The time and dose of CM03 treatment were selected to reveal initial but robust mRNA changes while minimizing chronic effects due to cell toxicity. In both cell lines, the number of genes with altered expression (as defined by >0.5 increase in Log 2 of fold change [Log2 FC], or < −0.5 decrease; false discovery rate [FDR] < 0.1) increased with duration of CM03 treatment. In PANC-1 cells 2165 genes at 6 h and 3977 genes at 24 h were seen to change, while in MIA PaCa-2 cells, 5306 genes changed at 6 h and 5477 genes at 24 h compared to untreated controls (Supporting Information, Table 1). […] To validate that the targeting of G4-containing genes is not a general feature of antiproliferative agents, we also examined the effects of the first-line therapeutic agent for PDAC, gemcitabine,[37] a potent antiproliferative DNA synthesis inhibitor whose mechanism of action is G4-independent and which remains a standard therapy option in advanced PDAC. Both cell lines were treated with a range of gemcitabine concentrations (Supporting Information, Figure 4, Table 4) for 6 or 24 h.
The PDAC cell lines PANC-1 (ATCC, catalogue no. CRL-1469) and MIA PaCa-2 (ATCC, catalogue no. CRL-142) were maintained in DMEM (ThermoFisher, catalogue no. 11965092) supplemented with 10% (v/v) heat inactivated FBS (ThermoFisher) in a humidified atmosphere containing 5% CO2 at 37 °C. Cell lines were confirmed mycoplasma free by RNA-capture ELISA, and their genotypes were certified by STR profiling.
PANC-1 (0.35 × 10^6 cells/well) and MIA PaCa-2 (1.5 × 10^6 cells/well) cell lines were seeded overnight in 60 mm plates. Next day, cells were treated with 400 nM CM03 for 6 and 24 h. For gemcitabine treatment, cells were treated for 6 and 24 h with DMSO or 30 nM, 100 nM, 300 nM, 1 μM, 3 μM, and 10 μM gemcitabine-HCL for PANC-1 cells and 30 nM, 300 nM, and 3 μM gemcitabine-HCl for MIA PaCa-2 cells. Total RNA was extracted using the Qiagen RNeasy Plus Mini Kit (ThermoFisher, catalogue no. 74134) as per the manufacturer’s instructions. RNA quality (RIN > 9.0) was checked with an Aligent 2100 bioanalyzer RNA 6000 Nano Chip, and RNA concentration was quantified using a Qubit fluorometer (ThermoFisher) and Qubit RNA HS Assay Kit (Qiagen, catalogue no. Q32852). RNA-seq libraries were then generated using the Illumina Truseq RNA HT (stranded mRNA) kit (Illumina, catalogue no. RS-122–2103) as per the manufacturer’s instructions and sequenced using an Illumina HiSeq4000.
Fastq raw sequencing files were preprocessed using cutadapt[81] to remove sequencing adapters and low quality sequencing tails (options −q 10) and then aligned to the human genome (GRCh37/hg19) using tophat2[82] and using the UCSC gtf file provided by Illumina iGenomes as an annotation file (http://support.illumina.com/sequencing/sequencing_software/igenome.html). Gene counts were calculated using htseq-count[83] and the same gtf file. Differential expression analysis was done using the R package edgeR.[84] Differentially expressed genes were estimated independently for both cell lines (MIA PaCa-2 and PANC-1) and for the different time points (6 and 24 h) and were then intersected to inspect the common genes. The sequencing data is available at the GEO public functional genomics data repository (https://www.ncbi.nlm.nih.gov/geo/) as GSE105083. Details of the putative G4 sequence (PQs) analysis are given in the Supporting Information.

PDAC MIA PaCa-2 cells = test: 96 h SRB growth inhibition assay, MIA PaCa-2; type: cell-based, human; conditions: 96 h SRB IC50
Protocol: Compounds were screened with a 96 h SRB (sulforhodamine B) assay for their antiproliferative activity in a panel of human cancer cell lines comprising lung adenocarcinoma (A549), breast adenocarcinoma (MCF7), and PDAC (MIA PaCa-2 and PANC-1) cell lines, as well as a fetal lung fibroblast-like nononcogenic control cell line (WI-38) (Figure 1f). […] Gemcitabine is also active in these lines at low nanomolar levels, although less so in MIA PaCa-2 (IC50 19 ± 5 nM) and more so in BX-PC3 cells (6 ± 2 nM).
All cell lines were purchased from ATCC and maintained in appropriate medium supplemented with 10% fetal bovine serum (Invitrogen, UK), 2 mM L-glutamine (Invitrogen, Netherlands), and other components as specified by the suppliers. Cell lines were maintained at 37 °C, 5% CO2, and routinely passaged. Drugs were dissolved in H2O and filtered through 0.22 μm pore-size filter units (stock 10 mM) before addition to appropriate cell line media. Cellular growth inhibition was measured using the sulforhodamine B (SRB) assay in 96-well plates as described previously.[78] The 50% inhibitory concentrations (IC50) were determined by taking the mean absorbance at 540 nm for each drug concentration expressed as a percentage of the absorbance of untreated control wells.

`O=C1c2ccc3c4c(c(NCCN5CCCC5)cc(c24)C(=O)N1CCCN1CCOCC1)C(=O)N(CCCN1CCOCC1)C3=O` [CM03, 2,7-bis(3-morpholinopropyl)-4-((2-(pyrrolidin-1-yl)ethyl)amino)benzo[lmn][3,8]phenanthroline-1,3,6,8(2H,7H)-tetraone] was tested, and the “number of genes with altered expression” value (PANC-1 cells; 400 nM CM03, 6 h, PANC-1, Log2 FC >0.5 or < −0.5, FDR < 0.1) was 2165, the “number of genes with altered expression” value (PANC-1 cells; 400 nM CM03, 24 h, PANC-1) was 3977 and the “A1BG Log FC ([6h] vs [Control]) PANC-1” value (PANC-1 cells; RNA-seq, 400 nM CM03, 6 h) was -0.2704. The “A1BG-AS1 Log FC ([6h] vs [Control]) PANC-1” value (PANC-1 cells; RNA-seq, 400 nM CM03, 6 h) was -1.747, the “A2LD1 Log FC ([6h] vs [Control]) PANC-1” value (PANC-1 cells; RNA-seq, 400 nM CM03, 6 h) was -0.1242 and the “AAAS Log FC ([6h] vs [Control]) PANC-1” value (PANC-1 cells; RNA-seq, 400 nM CM03, 6 h) was -0.01012. For the same molecule, the “AACS logFC 6h PANC-1” value (PANC-1 cells; RNA-seq, 400 nM CM03, 6 h) was -0.1667, the “A1BG Log FC ([24h] vs [Control]) PANC-1” value (PANC-1 cells; RNA-seq, 400 nM CM03, 24 h) was -0.2368 and the “A2LD1 Log FC ([24h] vs [Control]) PANC-1” value (PANC-1 cells; RNA-seq, 400 nM CM03, 24 h) was -0.09987. The “AAAS Log FC ([24h] vs [Control]) PANC-1” value (PANC-1 cells; RNA-seq, 400 nM CM03, 24 h) was -0.5132, the “AACS logFC 24h PANC-1” value (PANC-1 cells; RNA-seq, 400 nM CM03, 24 h) was 0.00469 and the “selectivity for MIA PaCa-2 compared to MCF-7 cells” value (PDAC MIA PaCa-2 cells) was over 20 fold.

In the case of `Nc1ccn([C@@H]2O[C@H](CO)[C@@H](O)C2(F)F)c(=O)n1` [gemcitabine, reference compound], the “1/2-SBSRNA4 logFC PANC-1” value (PANC-1 cells; RNA-seq, 6 h) is reported as 0.2646, the “A1BG logFC PANC-1” value (PANC-1 cells; RNA-seq, 6 h) is reported as -0.08914 and the “A1BG-AS1 logFC PANC-1” value (PANC-1 cells; RNA-seq, 6 h) is reported as 0.1407. For the same molecule, the “A2LD1 logFC PANC-1” value (PANC-1 cells; RNA-seq, 6 h) was -0.1053, the “A4GALT logFC PANC-1” value (PANC-1 cells; RNA-seq, 6 h) was 0.005472 and the “1/2-SBSRNA4 logFC PANC-1” value (PANC-1 cells; RNA-seq, 24 h) was 0.6908. For the same molecule, the “A1BG logFC PANC-1” value (PANC-1 cells; RNA-seq, 24 h) was -0.1465, the “A1BG-AS1 logFC PANC-1” value (PANC-1 cells; RNA-seq, 24 h) was 1.012 and the “A2LD1 logFC PANC-1” value (PANC-1 cells; RNA-seq, 24 h) was -0.7315. The “A4GALT logFC PANC-1” value (PANC-1 cells; RNA-seq, 24 h) was 0.6241.
